What all share (type): cell-based
Experiment [1] deals with T1, mTRPV2 (Mus musculus, UniProt Q9WTR1).
T1 construct: expressed in transfected cells; host or cells: HEK293
T1 sequence (Q9WTR1 1-756): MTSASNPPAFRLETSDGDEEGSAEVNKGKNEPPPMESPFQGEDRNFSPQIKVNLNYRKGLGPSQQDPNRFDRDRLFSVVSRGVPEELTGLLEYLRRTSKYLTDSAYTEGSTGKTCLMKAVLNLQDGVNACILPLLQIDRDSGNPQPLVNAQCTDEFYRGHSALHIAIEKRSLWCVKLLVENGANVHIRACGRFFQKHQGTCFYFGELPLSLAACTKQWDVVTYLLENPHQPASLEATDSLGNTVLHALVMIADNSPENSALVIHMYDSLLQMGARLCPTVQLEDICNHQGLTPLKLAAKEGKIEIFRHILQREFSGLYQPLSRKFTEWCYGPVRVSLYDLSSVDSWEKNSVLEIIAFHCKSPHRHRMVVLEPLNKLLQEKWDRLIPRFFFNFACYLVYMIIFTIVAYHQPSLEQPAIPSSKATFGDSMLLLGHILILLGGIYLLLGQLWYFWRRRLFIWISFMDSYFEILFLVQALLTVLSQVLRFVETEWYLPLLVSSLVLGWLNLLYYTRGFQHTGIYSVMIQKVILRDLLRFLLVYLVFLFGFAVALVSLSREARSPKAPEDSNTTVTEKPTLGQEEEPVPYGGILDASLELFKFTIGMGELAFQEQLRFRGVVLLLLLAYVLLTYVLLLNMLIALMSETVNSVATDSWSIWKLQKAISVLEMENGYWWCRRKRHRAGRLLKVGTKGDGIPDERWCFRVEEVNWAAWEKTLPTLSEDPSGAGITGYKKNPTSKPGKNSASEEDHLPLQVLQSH
Put plainly: Whole-cell patch-clamp of TRPV2 currents activated by 2-APB in HEK293 cells. The conditions noted are these: flopropione 100 μM, 2-APB 2 mM. The method, then: (§1) HEK293 cells were cultured in Dulbecco’s modified Eagle’s medium (DMEM, Gibco) containing 4.5 g/L D-glucose supplemented with 10% fetal bovine serum based at 37 °C with 5% CO2. For whole-cell patch-clamp recordings, cells were grown in glass coverslips for 24 h before transient transfections with 3000 ng cDNAs of hTRPV3 (gene accession number BC104866.1), hTRPV1 (accession number NM_080704.3), mTRPV2 (accession number NM_011706.2), hTRPV4 (accession number NM_021625.5), hTRPA1 (accession number NM_007332.3) and hTRPM8 (accession number NM_024080.5) into HEK293 cells grown in a 35-mm cell culture dish using Lipofectamine 2000 (Invitrogen). Cells were used 18 ∼ 24 h after transfection. All WT or mutant hTRPV3 plasmids were validated by DNA sequencing.
(§2) Whole-cell patch clamp recordings of wild-type and mutants were carried out at room temperature using the HEKA EPC10 amplifier powered by PatchMaster software (HEKA) or MultiClamp 700B amplifier driven by Clampex 11.0.3 software. The borosilicate glass pipettes were pulled and fire-polished to 3∼6 MΩ using a DMZ universal electrode puller (Zeitz-Instruments, GmbH). Pipette solution and bath solution both contained (in mM): 130 NaCl, three HEPES, and 0.2 EDTA (pH = 7.4). Cell membrane potential was held at 0 mV, currents were recorded at a voltage ramp from −100 to +100 mV for 500-ms and analyzed at ±80 mV.
(Patch clamp records ionic current or voltage across a cell membrane.)

In experiment [2] the target is T2, hTRPA1 (Homo sapiens, UniProt O75762).
T2 construct: expressed in transfected cells; host or cells: HEK293
T2 sequence (O75762 whole entry): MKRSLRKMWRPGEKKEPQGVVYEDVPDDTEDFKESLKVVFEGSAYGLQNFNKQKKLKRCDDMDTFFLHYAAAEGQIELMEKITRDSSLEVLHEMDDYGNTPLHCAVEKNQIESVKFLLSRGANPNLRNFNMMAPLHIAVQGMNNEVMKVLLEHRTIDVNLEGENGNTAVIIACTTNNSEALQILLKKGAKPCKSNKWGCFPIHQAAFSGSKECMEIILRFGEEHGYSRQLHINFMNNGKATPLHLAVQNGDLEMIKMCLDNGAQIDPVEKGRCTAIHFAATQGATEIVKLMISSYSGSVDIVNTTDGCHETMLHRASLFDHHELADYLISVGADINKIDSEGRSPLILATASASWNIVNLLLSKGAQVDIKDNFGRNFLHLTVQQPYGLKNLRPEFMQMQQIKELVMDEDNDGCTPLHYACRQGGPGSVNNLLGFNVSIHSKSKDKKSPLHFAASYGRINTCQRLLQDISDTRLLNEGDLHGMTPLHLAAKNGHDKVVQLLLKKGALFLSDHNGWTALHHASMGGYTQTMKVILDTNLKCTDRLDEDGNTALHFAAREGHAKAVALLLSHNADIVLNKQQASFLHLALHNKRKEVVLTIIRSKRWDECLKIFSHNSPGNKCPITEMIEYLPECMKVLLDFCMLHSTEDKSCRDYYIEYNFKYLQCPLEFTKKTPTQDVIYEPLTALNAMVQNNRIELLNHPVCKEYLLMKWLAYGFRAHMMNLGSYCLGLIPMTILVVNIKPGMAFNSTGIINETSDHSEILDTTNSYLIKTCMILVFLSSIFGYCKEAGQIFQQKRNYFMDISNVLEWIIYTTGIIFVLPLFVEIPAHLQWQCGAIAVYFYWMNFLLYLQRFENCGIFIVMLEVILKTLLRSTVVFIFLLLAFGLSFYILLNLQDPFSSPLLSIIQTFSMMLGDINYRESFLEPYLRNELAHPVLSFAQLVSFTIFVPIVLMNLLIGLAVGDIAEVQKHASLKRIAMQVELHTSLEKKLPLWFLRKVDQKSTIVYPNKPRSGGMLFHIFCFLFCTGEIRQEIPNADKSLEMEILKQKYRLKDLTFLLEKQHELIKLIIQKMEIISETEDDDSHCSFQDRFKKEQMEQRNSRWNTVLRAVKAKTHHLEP
Nature of the experiment: Whole-cell patch-clamp of TRPA1 currents activated by AITC in HEK293 cells. To be noted: flopropione 100 μM, AITC 300 μM. As for the experimental part:
as §1, §2

Experiment [3] deals with T3, TRPV3-F666A mutant (Homo sapiens, UniProt Q8NET8, F666A).
T3 construct: expressed in transfected cells; host or cells: HEK293
T3 sequence (Q8NET8 1-790 F666A): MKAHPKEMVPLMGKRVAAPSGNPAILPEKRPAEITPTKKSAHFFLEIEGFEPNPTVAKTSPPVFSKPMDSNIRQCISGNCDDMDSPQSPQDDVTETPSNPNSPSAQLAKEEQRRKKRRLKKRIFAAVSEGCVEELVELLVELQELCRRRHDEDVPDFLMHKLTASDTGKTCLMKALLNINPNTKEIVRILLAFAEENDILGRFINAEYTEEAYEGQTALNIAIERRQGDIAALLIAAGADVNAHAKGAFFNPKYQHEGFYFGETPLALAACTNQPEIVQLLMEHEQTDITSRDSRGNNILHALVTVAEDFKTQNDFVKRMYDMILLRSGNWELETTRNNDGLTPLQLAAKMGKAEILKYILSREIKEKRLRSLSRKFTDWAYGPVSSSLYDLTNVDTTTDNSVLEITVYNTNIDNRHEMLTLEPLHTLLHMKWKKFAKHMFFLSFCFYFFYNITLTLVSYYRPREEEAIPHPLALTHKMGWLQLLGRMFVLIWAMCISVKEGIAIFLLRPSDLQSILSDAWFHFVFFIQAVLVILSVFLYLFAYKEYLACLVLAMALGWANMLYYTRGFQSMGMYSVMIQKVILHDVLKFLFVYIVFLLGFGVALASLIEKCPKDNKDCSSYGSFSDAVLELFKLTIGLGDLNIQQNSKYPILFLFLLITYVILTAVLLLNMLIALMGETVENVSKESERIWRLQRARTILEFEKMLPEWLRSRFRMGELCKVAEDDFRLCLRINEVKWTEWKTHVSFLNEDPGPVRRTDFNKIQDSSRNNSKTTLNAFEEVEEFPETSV
Nature of the experiment: Whole-cell and single-channel recordings of TRPV3-F666A mutant. To be noted: 100 μM flopropione whole-cell (50 μM 2-APB); 50 μM single-channel (30 μM 2-APB). The method, then:
as §1
as §2, with “mV. […]” for “mV.”

As a reminder, the inhibition is the percentage by which the read-out fell short of the control. A lower inhibition goes with a weak effect.

For `CCC(=O)c1c(O)cc(O)cc1O` [flopropione], the inhibition at 100 µM in experiment [1] was ~60%. Further, in experiment [2], the “effect on TRPA1 currents” value is “no effect”. The “effect of F666A mutation on flopropione-mediated inhibition” value in experiment [3] is on record as “no effect”.

(Values after paper PMC10828444, “Selective inhibition of overactive warmth-sensitive Ca^2+-permeable TRPV3 channels by antispasmodic agent flopropione for alleviation of skin inflammation” (The Journal of Biological Chemistry, 2023).)
